Source: patent US10881642B2, “Autophagy enhancer and use thereof” (Industry-Academic Cooperation Foundation, Yonsei University, priority 2016, dated 2021)

Key:
HeLa cells = assay: GCaMP3-ML1 lysosomal Ca2+ release imaging; format: cell-based; conditions: GPN 200 μM; ionomycin 1 μM
Experimental: HeLa cells were transfected with perilysosomal GCaMP3-ML1 calcium probe, and Ratiometric image (474 and 410 nm excitation) was obtained.
GCaMP3 Ca2+ Imaging. HeLa cells were grown on 15 mm coverslips and transfected with plasmid encoding the perilysosomal-localized ML1-GCaMP3 calcium probes.

[1] = test system: primary peritoneal macrophages; assay: Mitochondrial ROS (MitoSOX) and potential (MitoTracker) by FACS; format: cell-based, C57BL/6 mice; conditions: PA plus LPS
HFD-fed hIAPP+ mice = assay: Metabolic profile and islet amyloid of HFD-fed hIAPP+ mice; format: in vivo
Experimental: (FIG. 13A) INS-1 cells transfected with non-amyloidogenic prepro-mIAPP-HA or amyloidogenic prepro-hIAPP-HA construct were treated with MSL or MSL-7 followed by western blot analysis using anti-HA antibody. (FIG. 13B) the transfected cells of (FIG. 13A) were treated with MSL-7 in the presence or absence of bafilomycin followed by western blot analysis using anti-HA antibody. (FIG. 13C) The transfected cells were treated with MSL-7 in the presence or absence of 3-MA, after which the amount of […] contained in the cell lysates were measured. (FIG. 13D) HFD-fed hIAPP+ mice were administered with MSL-7, and non-fasting glucose level was monitored. (FIG. 13E) IPGTT. (FIG. 13F) HFD-fed hIAPP+ mice were administered with MSL-7 for 8 weeks and the insulinogenic index was measured. (FIG. 13G) HFD-fed hIAPP+ mice were administered with MSL-7 for 8 weeks and the pancreatic section was obtained. All antibody was used for immunohistochemistry (left). The percentage of A11-[…] cells among DAPI+ cells (right). (FIG. 13H) FSB stained pancreatic section of HFD-fed hIAPP+ mice administered with MSL-7 for 8 weeks (left). Average fluorescence intensity/area (right).
Screening of autophagy enhancer. […] Luciferase assay. Firefly and Renilla luciferase assays were conducted using the Dual-Luciferase Reporter Assay System (Promega) according to the manufacturer's recommendation. In brief, cells were lysed in 1× lysis buffer and subjected to a single round of freezing/thawing. Firefly luciferase was determined after mixing 5 μl of lysate with 25 μl of Luciferase Assay Reagent II. Renilla luciferase was then determined after further addition of 20 ul of Stop&Glo Reagent. Cell culture and media and drugs treatment. HeLa, TFEB-GFP-HeLa, SK-HEP1 (hepatoma cell line) and Hepa1c1c7 (hepatoma cell line) cells were cultured in the following media: (normal) Dulbecco's modified Eagle's medium (DMEM, Sigma-Aldrich) supplemented with 10% FBS and 1% penicillin/streptomycin; (starvation) HBSS media with Ca and Mg supplemented with 10 mM HEPES; Drugs treatment: MSL compound (50-100 μM); Rapamycin ([…]); Torin-1 (1 μM); Bafilomycin (100 nM); Cyclosporin A (10 μM); and FK506 (5 μM). Cells were treated with oleic acid (400 μM) and palmitic acid (400 μM) for 24 h. Where indicated, cells were washed off with HBSS and replaced by DMEM with or without MSL for 16 h. INS-1 cells, a insulinoma cell line of […] were cultured as described previously (Kim et al., 2014 ibid) in the presence or absence of bafilomycin and treated with MSL-7. Lactate dehydrogenase (LDH) assay. Cytotoxicity was determined by the measurement of LDH release in cell culture media using the LDH kit (Roche), according to the protocol from the manufacturer. Transfection and plasmids. Cells were transiently transfected with DNA plasmids 3×FLAG-hTFEB (A Ballabio), FYVE-dsRed (Cantley LC), RFP-LC3 or mRFP-GFP-LC3 using lipofectamine 2000 (Invitrogen) according to the protocol from the manufacturer. […] Imaging and image quantification. […] Formation of acidic vesicular organelles was quantitated by staining the cells with acridine orange (Invitrogen, 5 ug/ml, 10 min). […] Cells or tissues were solubilized in lysis buffer supplemented with protease and phosphatase inhibitors and protein concentration was measured by the Bradford method. Ten to 30 micrograms were loaded on 4-12% Bis-Tris gel (NUPAGE, Invitrogen) or 8-15% SDS-PAGE, transferred to PVDF membranes and analyzed by western blot using the ECL method (Pierce). […]

Compound	lysosomal Ca2+ release (HeLa cells)	mitochondrial ROS content (MitoSox) [1]	mitochondrial potential (MitoTracker Red) [1]	non-fasting glucose level (HFD-fed hIAPP+ mice)	FSB-stained pancreatic islet amyloid (HFD-fed hIAPP+ mice; 8-week administration)	accumulation of hIAPP oligomer (A11 antibody) (HFD-fed hIAPP+ mice; 8-week administration)	Glucose intolerance (IPGTT) (HFD-fed hIAPP+ mice; 8 week treatment)	insulinogenic index (HFD-fed hIAPP+ mice; 8 week treatment)
CSc1oc(-c2ccccc2)nc1S(=O)(=O)c1ccc(F)cc1 [MSL]	no increase of lysosomal Ca2+ release	significantly reduced	significantly reduced					
COc1oc(-c2ccccc2Cl)nc1S(=O)(=O)c1ccccc1 [MSL-7, 2-(2-chlorophenyl)-5-methoxy-4-(phenylsulfonyl) oxazole]				significantly reduced	similarly reduced	significantly reduced	significantly improved	significantly improved
